Article PMC9358002, “Synthesis and Discovery of Ligustrazine–Heterocycle Derivatives as Antitumor Agents” (Frontiers in Chemistry, 2022)
Where two headings read alike, the source gives them in different places.

How the values were obtained:
[1] = test system: human breast cancer MCF-7; assay: MTT antiproliferative assay, MCF-7; format: cell-based; settings: 0–50 μM, read-out: Antiproliferative activity IC50 ± SEM, MCF-7
Procedure: (§1) The in vitro antiproliferative activity of 33 TMPH compounds was evaluated by MTT assay ([Medica et al., 2022]). Five types of TNBC-related cell lines (human breast cancer MCF-7 and MDA-MB-231, mouse breast cancer 4T1, mouse fibroblast L929, and human umbilical vein endothelial HUVEC cell lines) were used. The cell lines were obtained from the Shanghai Institute of Biochemistry and Cell Biology of the Chinese Academy of Sciences (Shanghai, China). The cell lines were cultured in DMEM supplemented with 1% penicillin–streptomycin solution (100×) and 10% FBS at 37°C under a humid atmosphere containing 5% CO2. After cell passage, cryopreservation, and resuscitation, the growth-inhibitory effects against the five cell lines were determined by MTT assay. The 33 TMPH compounds and the reference control drug cisplatin were dissolved in 0.1% DMSO solution. The cell lines were maintained in 96-well plates and subjected to each test compound (0–50 μM) at 37°C for 48 h. After treatment with 1 mg/ml MTT solution for 4 h, the formazan crystals were dissolved in each well. A microplate reader (Varioskan Flash 3001, Thermo Scientific) was used to determine the cell viability at 490 nm, and each experiment was repeated four times. The collected data were expressed as the mean ± SEM. The inhibitory concentration of the 34 compounds at 50% (IC50) was calculated via concentration–inhibition relationship regression by SPSS software.

[2] = test system: human umbilical vein endothelial HUVEC; assay: MTT antiproliferative assay, HUVEC; format: cell-based; settings: 48 h, 0–50 μM, read-out: Antiproliferative activity IC50 ± SEM, HUVEC
Procedure: as §1

[3] = test system: human breast cancer MDA-MB-231; assay: MTT antiproliferative assay, MDA-MB-231; format: cell-based; settings: for IC50: MTT, 48 h, 0–50 μM, read-out: Antiproliferative activity IC50 ± SEM, MDA-MB-231; for SI, selectivity index: SI = IC50 (L929)/IC50 (MDA-MB-231)
Procedure: as §1

[4] = test system: mouse breast cancer 4T1; assay: MTT antiproliferative assay, 4T1; format: cell-based; settings: 48 h, 0–50 μM, read-out: Antiproliferative activity IC50 ± SEM, 4T1
Procedure: as §1

[5] = test system: mouse fibroblast L929; assay: MTT antiproliferative assay, L929; format: cell-based; settings: 0–50 μM, read-out: Antiproliferative activity IC50 ± SEM, L929
Procedure: as §1

[6] = test system: MCF-7, MDA-MB-231, 4T1, L929 and HUVEC cell lines; assay: MTT antiproliferative assay, statements over all five tested cell lines; format: cell-based; settings: range over all five tested cell lines, read-out: IC50 values ranging over the tested cell lines
Procedure: as §1

[7] = test system: MDA-MB-231 cells; assay: Apoptosis analysis by annexin V-FITC/PI staining (flow cytometry); format: cell-based, human; settings: 48 h; for apoptotic ratio: control 13.7%
Procedure: Apoptosis induced by TMPH compound 12–9 was evaluated by annexin V-FITC/PI staining. Briefly, MDA-MB-231 cells in the logarithmic growth phase were cultured in a six-well plate and incubated for 24 h at 37°C under a humid atmosphere containing 5% CO2. […] The incubated cells were washed twice with PBS, digested by trypsin, and centrifuged at 1,000 rpm for 5 min. The collected MDA-MB-231 cells were transferred to a 1.5-ml tube and resuspended in a solution of 200 μl of annexin V-FITC and 5 μl of PI. After incubation in a dark environment (covered with aluminum foil) for 15 min at room temperature, the collected cells were evaluated by flow cytometry (CyFlow®Cube 6, Sysmex). The apoptosis analysis data were shown as a pseudo color map and analyzed by FlowJo software.

[8] = test system: MDA-MB-231 cells; assay: Hoechst 33 342 staining of MDA-MB-231 cells; format: cell-based, human; settings: 1.0 μM, 48 h
Procedure: The induction of apoptosis by compound 12–9 was visually evaluated in MDA-MB-231 cells by Hoechst 33 342 staining. The test cells were transferred to six-well plates at a density of 1 × 10^5 cells. […] Then, the MDA-MB-231 cells were stained with Hoechst 33 342 solution (10 μg/ml in the culture medium, Beyotime Institute of Biotechnology, Shanghai, China) at 37°C in a dark room for 20 min after incubation with the test compound 12–9. The cells were then washed twice with a serum-free medium to remove the leftover dye. The apoptotic cells stained by Hoechst 33 342 were imaged using CLSM (Carl-Zeiss LSM 710).

[9] = test system: MDA-MB-231 cells; assay: Clonal formation assay of MDA-MB-231 cells; format: cell-based, human; settings: 0.5, 1.0 and 2.0 μM for 10 days
Procedure: Human breast cancer MDA-MB-231 cells were cultured in a six-well plate with 1,500 cells per well and incubated for 24 h at 37°C under a humid atmosphere containing 5% CO2. Then, the MDA-MB-231 cells were incubated with compound 12–9 at final concentrations of 0, 0.5, 1.0, and 2.0 μM for 10 days. The treated cells were washed with PBS and fixed with 4% paraformaldehyde for 15 min at room temperature. Then, the end product of the cell colonies was visualized by staining with 0.1% crystal violet for 10 min. The images were photographed using a handy camera, and the number of cell colonies was assessed using open Image J software (National Institutes of Health). Each experiment was repeated three times. A group of >50 cells was defined as one colony formation.

| Compound | IC50 ([1]; Homo sapiens, MCF7, 48 h) | IC50 ([2]; Homo sapiens, HUVEC) | IC50 ([3]; Homo sapiens, MDA-MB-231) | SI, selectivity index [3] | IC50 ([4]; Mus musculus) | IC50 ([5]; Mus musculus, L929, 48 h) | IC50 [6] | other results |
| --- | --- | --- | --- | --- | --- | --- | --- | --- |
| Cc1nc(C)c(C(=O)NCCCCCCCCCCCCNC(=O)c2cc3ccccc3[nH]2)nc1C [12–4] | 3.23 ± 0.18 µM | > 20 µM | 3.52 ± 0.12 µM | >5.68 | 6.62 ± 0.14 µM | > 20 µM | – | – |
| Cc1nc(C)c(C(=O)NCCCCCCCCCCCCNC(=O)c2cnc3ccccc3c2)nc1C [12–5] | 1.36 ± 0.06 µM | 11.4 ± 0.44 µM | 2.39 ± 0.12 µM | 1.75 | 3.5 ± 0.06 µM | 4.18 ± 0.05 µM | 1.61 to 19.5 µM | – |
| Cc1nc(C)c(C(=O)NCCCCCCCCCCCCNC(=O)c2ccc3ncccc3c2)nc1C [12–6] | 2.04 ± 0.03 µM | 7.03 ± 0.05 µM | 1.98 ± 0.15 µM | 2.70 | 4.18 ± 0.09 µM | 5.35 ± 0.17 µM | 1.61 to 19.5 µM | – |
| Cc1nc(C)c(C(=O)NCCCCCCCCCCCCNC(=O)c2ccc3cc[nH]c3c2)nc1C [12–9] | 1.11 ± 0.15 µM | 3.82 ± 0.24 µM | 0.84 ± 0.02 µM | 3.76 | 1.16 ± 0.18 µM | 3.16 ± 0.13 µM | 1.61 to 19.5 µM | Q1, necrotic cells (annexin V−/PI+) ([7]; 0.5 μM): 0.20; Q2, late apoptotic or necrotic cells (annexin V+/PI+) ([7]; 0.5 μM): 15.2; Q3, early apoptotic cells (annexin V+/PI−) ([7]; 0.5 μM): 8.76; Q4, living cells (annexin V−/PI−) ([7]; 0.5 μM): 75.9; apoptotic ratio ([7]; 0.5 μM): 23.96%; Q1, necrotic cells (annexin V−/PI+) ([7]; 1.0 μM): 0.37; Q2, late apoptotic or necrotic cells (annexin V+/PI+) ([7]; 1.0 μM): 24.8; Q3, early apoptotic cells (annexin V+/PI−) ([7]; 1.0 μM): 7.84; Q4, living cells (annexin V−/PI−) ([7]; 1.0 μM): 67.0; apoptotic ratio ([7]; 1.0 μM): 32.64%; Q1, necrotic cells (annexin V−/PI+) ([7]; 2.0 μM): 1.03; Q2, late apoptotic or necrotic cells (annexin V+/PI+) ([7]; 2.0 μM): 35.3; Q3, early apoptotic cells (annexin V+/PI−) ([7]; 2.0 μM): 11.6; Q4, living cells (annexin V−/PI−) ([7]; 2.0 μM): 52.1; apoptotic ratio ([7]; 2.0 μM): 46.9%; apoptotic morphology, Hoechst 33 342 staining [8]: appeared shrunken and showed strong blue fluorescence; colony formation versus untreated control [9]: significantly fewer and smaller |
| Cc1nc(C)c(C(=O)NCCCCCCCCCCCCNC(=O)C=Cc2ccc(Cl)cc2)nc1C [12–10] | 2.09 ± 0.06 µM | 12.37 ± 0.09 µM | 2.42 ± 0.06 µM | 1.58 | 1.63 ± 0.03 µM | 3.82 ± 0.07 µM | 1.61 to 19.5 µM | – |
| COc1ccc(C=CC(=O)NCCCCCCCCCCCCNC(=O)c2nc(C)c(C)nc2C)cc1OC [12–11] | 1.76 ± 0.02 µM | > 20 µM | 2.42 ± 0.18 µM | >8.26 | 2.32 ± 0.14 µM | > 20 µM | – | – |
| COc1cc(C=CC(=O)NCCCCCCCCCCCCNC(=O)c2nc(C)c(C)nc2C)cc(OC)c1OC [12–12] | 2.21 ± 0.15 µM | 12.2 ± 0.2 µM | 1.64 ± 0.12 µM | 11.50 | 2.69 ± 0.04 µM | 18.9 ± 0.44 µM | 1.61 to 19.5 µM | – |
| Cc1nc(C)c(C(=O)NCCCCCCCCCCCCNC(=O)c2ccc3ccccc3c2)nc1C [12–13] | 1.61 ± 0.08 µM | 10.7 ± 1.06 µM | 5.01 ± 0.16 µM | 1.77 | 4.76 ± 0.45 µM | 8.89 ± 0.12 µM | 1.61 to 19.5 µM | – |
| N.N.[Cl][Pt][Cl] [DDP, cisplatin, reference compound] | – | – | – | 2.64 | – | – | – | IC50 ([1]; 48 h): 6.25 ± 0.34 µM; IC50 [2]: 7.46 ± 0.45 µM; IC50 [3]: 3.18 ± 0.06 µM; IC50 [4]: 5.71 ± 0.16 µM; IC50 ([5]; 48 h): 8.38 ± 0.23 µM |
| Cc1nc(C)c(C)nc1C [TMP, Ligustrazine] | > 20 µM | > 20 µM | > 20 µM | – | > 20 µM | > 20 µM | – | – |
